Assays:
LMR20 cells = test: Proliferation of MDV3100-resistant LMR20 cells (MTT; with R1881 or DHT); format: cell-based, human; settings: 5 days
Experimental: LMR20 cells were plated at 1,500 cells per well in phenol red-free medium with charcoal-stripped fetal bovine serum (CSS), to remove any androgens from the medium (Life Technologies). […] The synthetic androgen agonist, R1881, (Takeda, A. N. et al., Mol. Pharmacol. 2007. 71: 473-82) was added on day 1 at 1 nM dose to a set of cells also treated with each of the antisense oligonucleotides. DHT was added on day 1 at a dose of 10 nM to another set of cells also treated with each of the antisense oligonucleotides. […] After a treatment period of 5 days, the proliferative ability of the cancer cells was measured by the standard MTT assay. Results are presented in Table 42 as percent inhibition of proliferation, relative to non-treated cells.

LNCaP cells = test: LNCaP cell proliferation, ASO in combination with MDV3100 (Example 20); format: cell-based, human; settings: for Proliferation (% untreated control) in LNCaP without MDV-3100: 5 days
Experimental: LNCaP cells were plated at 1,000 cells per well. […] ISIS 549148 was included as a negative control. […] After a treatment period of 5 days, the proliferative capacity of the cancer cells was measured with CellTiter 96® AQueous One or CellTiter-Glo® Solution Cell Proliferation kit (Promega), following the manufacturer's instructions. […]

PSA mRNA = test: PSA expression in LNCaP cells (complete, CSS+DHT medium); format: cell-based, human; settings: for Percent inhibition of PSA expression in LNCaP cells cultured in CSS + DHT medium: CSS + DHT (1 nM) medium, 48 hrs; for Percent inhibition of PSA expression in LNCaP cells cultured in complete medium: 48 hours
Experimental: Cells were plated at 1,000 cells per well. […] ISIS 549148 was included as a negative control. […] After an incubation period of 48 hours, RNA levels of AR, PSA and TMPRSS2 were measured.
Cells were plated at 2,000 cells per well and cultured in phenol red-free RPMI supplemented with 5% charcoal stripped serum (Gibco) media for 16 hours. […] ISIS 549148 was included as a negative control. […] After an incubation period of 4 hrs, DHT was added to the medium to a final concentration of 1 nM as indicated. RNAs were collected 48 hrs later and levels of AR, PSA and TMPRSS2 were measured. In the absence of DHT, AR expression in LNCaP cells was 95%, PSA expression was 7% and TMPRSS2 expression was 24% compared to the untreated control.

full length AR mRNA = test: Full-length AR RNA in VCaP cells (complete, CSS+DHT medium); format: cell-based, human; settings: RNAiMax, 48 hrs
Experimental: Cells were plated at 10,000 cells per well. […] After an incubation period of 48 hrs, RNA levels of full length AR, the V7 variant, PSA and TMPRSS2 were measured.
After an incubation period of 48 hrs, RNA levels of full length AR, the V7 variant, PSA and TMPRSS2 were measured. The data is presented in Tables 108 expressed as percent expression of gene levels compared to the untreated control.
Cells were plated at 15,000 cells per well and cultured in CSS media for 16 hours. […] After 4 hrs, 1 nM DHT was added. […] After an incubation period of 48 hrs, RNA levels of AR, PSA and TMPRSS2 were measured.

MDA-MB-453 tumor = test: Tumor volume in MDA-MB-453 breast cancer orthotopic model; format: in vivo, NSG mice; settings: Study 2, MDA-MB-453 model, NSG mice, 50 mg/kg s.c. 5 days per week for 2 weeks

## CNC(=O)c1ccc(N2C(=S)N(c3ccc(C#N)c(C(F)(F)F)c3)C(=O)C2(C)C)cc1F [MDV3100, 4-(3-(4-cyano-3-(trifluoromethyl)phenyl)-5,5-dimethyl-4-oxo-2-thioxoimidazolidin-1-yl)-2-fluoro-N-methylbenzamide, reference compound]
LMR20 cells; CSS + DHT, ASO 0.04 μM
  Percent inhibition of LMR20 cell proliferation: 0%
LMR20 cells; CSS + DHT, ASO 0.20 μM
  Percent inhibition of LMR20 cell proliferation: 1%
LMR20 cells; CSS + DHT, ASO 1.0 μM
  Percent inhibition of LMR20 cell proliferation: 13%
LMR20 cells; CSS + DHT, ASO 5.0 μM
  Percent inhibition of LMR20 cell proliferation: 41%
LMR20 cells; CSS + R1881, ASO 0.04 μM
  Percent inhibition of LMR20 cell proliferation: 0%
LMR20 cells; CSS + R1881, ASO 0.20 μM
  Percent inhibition of LMR20 cell proliferation: 5%
LMR20 cells; CSS + R1881, ASO 1.0 μM
  Percent inhibition of LMR20 cell proliferation: 31%
LMR20 cells; CSS + R1881, ASO 5.0 μM
  Percent inhibition of LMR20 cell proliferation: 67%
LMR20 cells; CSS, ASO 0.04 μM
  Percent inhibition of LMR20 cell proliferation: 0%
LMR20 cells; CSS, ASO 0.20 μM
  Percent inhibition of LMR20 cell proliferation: 5%
LMR20 cells; CSS, ASO 1.0 μM
  Percent inhibition of LMR20 cell proliferation: 0%
LMR20 cells; CSS, ASO 5.0 μM
  Percent inhibition of LMR20 cell proliferation: 11%
LNCaP cells; Homo sapiens, LNCaP, read-out: inhibited proliferation, MDV3100 with control oligonucleotide ISIS 549148
  inhibition at 0.08 µM: 7%
PSA mRNA; 0.04 μM
  Percent inhibition of PSA expression in LNCaP cells cultured in CSS + DHT medium: 15%
  Percent inhibition of PSA expression in LNCaP cells cultured in complete medium: 0%
PSA mRNA; 0.2 μM
  Percent inhibition of PSA expression in LNCaP cells cultured in CSS + DHT medium: 38%
  Percent inhibition of PSA expression in LNCaP cells cultured in complete medium: 35%
PSA mRNA; 1 μM
  Percent inhibition of PSA expression in LNCaP cells cultured in CSS + DHT medium: 81%
  Percent inhibition of PSA expression in LNCaP cells cultured in complete medium: 84%
PSA mRNA; 5.0 μM
  Percent inhibition of PSA expression in LNCaP cells cultured in CSS + DHT medium: 82%
  Percent inhibition of PSA expression in LNCaP cells cultured in complete medium: 87%

## GGCTACTACGCCGTCA (3-10-3 (S)-cEt gapmer, chemistry not fully specified) [ISIS 549148, reference compound]
LNCaP cells; ASO dose 0.04 μM + 0.08 μM MDV-3100
  Proliferation (% untreated control) in LNCaP with 0.08 μM MDV-3100: 101 % untreated control
LNCaP cells; ASO dose 0.04 μM + 0.4 μM MDV-3100
  Proliferation (% untreated control) in LNCaP with 0.4 μM MDV-3100: 57 % untreated control
LNCaP cells; ASO dose 0.04 μM + 2.0 μM MDV-3100
  Proliferation (% untreated control) in LNCaP with 2.0 μM MDV-3100: 42 % untreated control
LNCaP cells; ASO dose 0.04 μM + […] MDV-3100
  Proliferation (% untreated control) in LNCaP with […] MDV-3100: 86 % untreated control
LNCaP cells; ASO dose 0.04 μM
  Proliferation (% untreated control) in LNCaP without MDV-3100: 101 % untreated control
LNCaP cells; ASO dose 0.08 μM + 0.08 μM MDV-3100
  Proliferation (% untreated control) in LNCaP with 0.08 μM MDV-3100: 93 % untreated control
LNCaP cells; ASO dose 0.08 μM + 0.4 μM MDV-3100
  Proliferation (% untreated control) in LNCaP with 0.4 μM MDV-3100: 65 % untreated control
LNCaP cells; ASO dose 0.08 μM + 2.0 μM MDV-3100
  Proliferation (% untreated control) in LNCaP with 2.0 μM MDV-3100: 39 % untreated control
LNCaP cells; ASO dose 0.08 μM + […] MDV-3100
  Proliferation (% untreated control) in LNCaP with […] MDV-3100: 106 % untreated control
LNCaP cells; ASO dose 0.08 μM
  Proliferation (% untreated control) in LNCaP without MDV-3100: 104 % untreated control
LNCaP cells; ASO dose 0.2 μM + 0.08 μM MDV-3100
  Proliferation (% untreated control) in LNCaP with 0.08 μM MDV-3100: 89 % untreated control
LNCaP cells; ASO dose 0.2 μM + 0.4 μM MDV-3100
  Proliferation (% untreated control) in LNCaP with 0.4 μM MDV-3100: 50 % untreated control
LNCaP cells; ASO dose 0.2 μM + 2.0 μM MDV-3100
  Proliferation (% untreated control) in LNCaP with 2.0 μM MDV-3100: 41 % untreated control
LNCaP cells; ASO dose 0.2 μM + […] MDV-3100
  Proliferation (% untreated control) in LNCaP with […] MDV-3100: 83 % untreated control
LNCaP cells; ASO dose 0.2 μM
  Proliferation (% untreated control) in LNCaP without MDV-3100: 91 % untreated control
LNCaP cells; ASO dose 1.0 μM + 0.08 μM MDV-3100
  Proliferation (% untreated control) in LNCaP with 0.08 μM MDV-3100: 90 % untreated control
LNCaP cells; ASO dose 1.0 μM + 0.4 μM MDV-3100
  Proliferation (% untreated control) in LNCaP with 0.4 μM MDV-3100: 48 % untreated control
LNCaP cells; ASO dose 1.0 μM + 2.0 μM MDV-3100
  Proliferation (% untreated control) in LNCaP with 2.0 μM MDV-3100: 32 % untreated control
LNCaP cells; ASO dose 1.0 μM + […] MDV-3100
  Proliferation (% untreated control) in LNCaP with […] MDV-3100: 59 % untreated control
LNCaP cells; ASO dose 1.0 μM
  Proliferation (% untreated control) in LNCaP without MDV-3100: 82 % untreated control
PSA mRNA; 0.04 μM
  Percent inhibition of PSA expression in LNCaP cells cultured in CSS + DHT medium: 0%
  Percent inhibition of PSA expression in LNCaP cells cultured in complete medium: 0%
PSA mRNA; 0.2 μM
  Percent inhibition of PSA expression in LNCaP cells cultured in CSS + DHT medium: 8%
  Percent inhibition of PSA expression in LNCaP cells cultured in complete medium: 0%
PSA mRNA; 1 μM
  Percent inhibition of PSA expression in LNCaP cells cultured in CSS + DHT medium: 0%
  Percent inhibition of PSA expression in LNCaP cells cultured in complete medium: 0%
PSA mRNA; 5.0 μM
  Percent inhibition of PSA expression in LNCaP cells cultured in CSS + DHT medium: 9%
  Percent inhibition of PSA expression in LNCaP cells cultured in complete medium: 0%
Full length AR mRNA; CSS medium, 1.34 nM
  Percent inhibition of full-length AR: 0%
Full length AR mRNA; CSS medium, 4.0 nM
  Percent inhibition of full-length AR: 0%
Full length AR mRNA; CSS medium, 13.4 nM
  Percent inhibition of full-length AR: 0%
Full length AR mRNA; CSS medium, 40 nM
  Percent inhibition of full-length AR: 0%
Full length AR mRNA; complete medium, 1.34 nM
  Percent inhibition of full-length AR: 0%
Full length AR mRNA; complete medium, 4.0 nM
  Percent inhibition of full-length AR: 8%
Full length AR mRNA; complete medium, 13.4 nM
  Percent inhibition of full-length AR: 5%
Full length AR mRNA; complete medium, 40 nM
  Percent inhibition of full-length AR: 17%
MDA-MB-453 tumor; Day 0
  Tumor volumes: 148
MDA-MB-453 tumor; Day 8
  Tumor volumes: 303
MDA-MB-453 tumor; Day 13
  Tumor volumes: 312
MDA-MB-453 tumor; Day 20
  Tumor volumes: 365
MDA-MB-453 tumor; Day 23
  Tumor volumes: 413
MDA-MB-453 tumor; Day 27
  Tumor volumes: 490
MDA-MB-453 tumor; Day 29
  Tumor volumes: 550

— patent USRE48461E1, “Modulation of androgen receptor expression” (Ionis Pharmaceuticals, Inc., priority 2012, dated 2021)
